# Measurements from article PMC12286339 (PLOS One, 2025).
# Several values for one entry are separate records, joined by “and”; a condition that tells them apart may be missing. Identical values can stand only once.
# Experiments:
# sheep = tested on: sheep; set-up: method as in earlier work; details: cumulative from multiple smaller doses; cited from earlier work
# [1] = Pharmacokinetics in blood of C57BL/6 mice, 1st trial (single IV bolus, LC-MS, two-compartment model); format: in vivo; details: individual mice, Tun 10 mg/mL 30uL IV
# Description: Eighty, 40 male (M) and 40 female (F), C57BL/6 mice were enrolled in the study on Day 0. Body weights, clinical observations, and digital caliper measurements were recorded. Eight (4M/4F) animals per treatment received a single 30uL intravenous bolus dose of the experimental samples (or control DMSO carrier) via the lateral tail vein, as shown in Fig 2A and S1 Table. […] After the first dosing, blood draws for the PK study were at 8-time points (5 min, 15 min, 30 min, 1 h, 2 h, 4 h, 6 h, 24 h). The mice were subdivided into 2 groups of 4 (2M/2F) mice each, with each subgroup having ~50 ul of blood collected via retro-orbital bleed for 4-time points (subgroup 1: 5 min, 30 min, 2h, and 6 h; subgroup 2: 15 min, 1h, 4h, and 24 h). In life, a collection of 50 μL of blood was diluted with 450 μL of ethanol and evaporated to dryness on a Speedvac evaporator under sterile conditions. The dried residues were stored at −80 °C and were shipped on dry ice to NCAUR, Peoria, for analysis. At the end of the study (24 h), the animals were euthanized, and terminal blood samples from all mice (100 µL) were collected via cardiac puncture, diluted with 900 μL of ethanol, and evaporated to dryness on a Speedvac. The dried residues are stored at −80 °C until ready for analysis.
# For the comparative PK of tunicamycins in blood, drug concentrations were measured by LC–MS/MS as previously described. Different compartmental models (0, 1, or 2 compartments) and weighting options were assessed for goodness of fit by visual inspection of the observed versus predicted plots, weighted residual versus observed and predicted plots, and comparison of Akaike Information Criterion (AICc) values. A two-compartment IV bolus model was determined to describe the data best (S1 Fig).
# Pharmacokinetic parameters were calculated by two-compartmental using a linear regression analysis and residuals method to calculate using Microsoft Excel 2024 using standard equations (Atkinson; 2007; Miyamato et al., 2019). Details about the PK equations to calculate drug concentrations and PK parameters are listed in the S1 Appendix.
# [2] = 2nd mouse trial: co-administration with oxacillin, drug in blood, liver, heart and brain; details: 24 h after 30uL IV of Tun 6.7 mg/mL + oxacillin 6.7 mg/mL, individual mice
# Description: In the second trial, which was a drug co-localization study, forty (20 male and 20 female) C57BL/6 mice were enrolled on Study Day 0 and were dosed according to the experimental design shown in Fig 2A and S3 Table. Body weights and clinical observations were recorded as before. […] Blood samples were taken (50 μL) 5 min, 15 min, 30 min, 1h, 2h, 4h, 6h, and 24h post-injection. At the end of the study (24 h post dose) the mice were euthanized by CO2 asphyxiation, and liver, brain and heart were collected. The organs were homogenized in ethanol, then filtered to remove solids, and the ethanolic filtrate dried by Speedvac evaporation. The dried residues were stored at −80 °C and shipped on dry ice. Drug concentrations in tissue were measured by LC–MS/MS as previously described.
# [3] = in vivo; cited from earlier work
Compound,oral lethal dose (sheep) [mg/kg],N-acyl variants in blood (1st trial) ([1]; time 0:05:00 (5 min)),N-acyl variants in blood (1st trial) ([1]; time 0:15:00 (15 min)),N-acyl variants in blood (1st trial) ([1]; time 0:30:00 (30 min)),N-acyl variants in blood (1st trial) ([1]; time 1:00:00 (1 h)),N-acyl variants in blood (1st trial) ([1]; time 2:00:00 (2 h)) [µg/mL],N-acyl variants in blood (1st trial) ([1]; time 4:00:00 (4 h)) [µg/mL],N-acyl variants in blood (1st trial) ([1]; time 6:00:00 (6 h)) [µg/mL],N-acyl variants in blood (1st trial) ([1]; time 24:00:00 (24 h)) [µg/mL],N-acyl variants in brain (2nd trial) [2] [µg/mL],N-acyl variants in heart (2nd trial) [2] [µg/mL],N-acyl variants in liver (2nd trial) [2],estimated t1/2 [3] [min]
corynetoxins [Cnx],3.2 to 5.6,,,,,,,,,,,,
CCC(C)CCCCCCCC/C=C/C(=O)N[C@H]1[C@H](O[C@H]2O[C@H](CO)[C@@H](O)[C@H](O)[C@H]2NC(C)=O)O[C@H](C[C@@H](O)[C@H]2O[C@@H](n3ccc(=O)[nH]c3=O)[C@H](O)[C@@H]2O)[C@H](O)[C@@H]1O (some centres unmarked) [C15a],,0.654 µg/mL and 0.6 µg/mL and 0 µg/mL,0 ug/mL (3×) and 0.45 ug/mL,0 µg/mL,0 µg/mL,0,0,0,0,0,0,0 µg/mL and 0.03337 µg/mL and 0.02831 µg/mL,
CC(=O)N[C@H]1[C@@H](O[C@@H]2O[C@H](C[C@@H](O)[C@H]3O[C@@H](n4ccc(=O)[nH]c4=O)[C@H](O)[C@@H]3O)[C@H](O)[C@H](O)[C@H]2NC(=O)/C=C/CCCCCCCCCC(C)C)O[C@H](CO)[C@@H](O)[C@@H]1O [C15i],,4.16 µg/mL and 5.09 µg/mL and 2.96 µg/mL,3.05 µg/mL and 3.14 µg/mL and 1.44 µg/mL and 3.28 µg/mL,0 ug/mL (2×) and 0.88 ug/mL and 1.74 ug/mL,0 ug/mL (2×) and 0.77 ug/mL and 1.66 ug/mL,0,0,0,0,0,0,0 µg/mL and 0.05015 µg/mL and 0.3411 µg/mL and 0.2948 µg/mL,
CCCCCCCCCCCCCC/C=C/C(=O)N[C@H]1[C@H](O[C@H]2O[C@H](CO)[C@@H](O)[C@H](O)[C@H]2NC(C)=O)O[C@H](C[C@@H](O)[C@H]2O[C@@H](n3ccc(=O)[nH]c3=O)[C@H](O)[C@@H]2O)[C@H](O)[C@@H]1O [C17s],,0 µg/mL,0 µg/mL,0 µg/mL,0 µg/mL,0,0,0,0,0,0,0 µg/mL and 0.1695 µg/mL and 0.1754 µg/mL,
Cc1onc(-c2ccccc2)c1C(=O)N[C@@H]1C(=O)N2[C@@H]1SC(C)(C)[C@@H]2C(=O)O [oxacillin],,,,,,,,,,,,,7.8
